Patent US20040133938A1, “Use of lipoic acid in plant culture media” (priority 2002, published 2004)

Tests used:
[1] = system: cotton hypocotyl explants; assay: Cotton transformation: embryogenic callus formation, lipoic acid in UMSEL media; assay type: cell-based; conditions: average from 3 experiments
Method: Cotton seed was washed in 2 teaspoons of detergent in 700-800 mL of sterile water for 10 minutes. Seed was then soaked in fungicide solution (0.6 g benlate, 0.6 g captan per 100 mL sterile water) for 10 min, drained, but not rinsed. Seed was imbibed for 30 minutes in 800 mL of 50% Clorox with 3 drops of Tween-20 and then rinsed 3 times with sterile water. Seed was spread in a sterile phytatray containing 1/2 MS plus 1% glucose media at a density of approximately 20 seeds per tray. Seeds were germinated in the dark at 28° C. for 7-10 days.
Agrobacterium was prepared by streaking a solid LBssck plate from frozen stock and incubating at 28° C. for 2 days. Two mL of liquid LBssck was inoculated with a single colony from the plate and grown overnight at 28° C. Culture is diluted 1:10 with fresh LBssck and cultured overnight at 28° C. The cells were spun down, the supernatant was poured off, cells were washed with MSO media and then resuspended in 20 mL of MSO.
Explants were harvested by cutting off the cotyledons and then making a cut approximately 4 to 6 cm below the cotyledon. Hypocotyl sections were placed in MSO media and then cut into 0.5 to 1 cm pieces.
Twenty mL of Agrobacterium broth was added to 100 to 500 cut explant sections and allowed to soak for 20 minutes. Explants were moved to co-culture medium (TrCO; see media descriptions below), covered with a plastic bag and co-cultured at room temperature for 2 days. After co-culture, explants were moved to UMSEL (1) media (with kanamycin or glyphosate selection), parafilmed and cultured in the light ( 16/8 photoperiod) at 28° C. for 4 weeks. Tissue was then transferred to fresh UMSEL (2) media containing selection in the same culture conditions for an additional 4 weeks.
Independent calli that had formed were then moved to UMO(1) containing selection, parafilmed and cultured in the dark at 28° C. for 8 weeks. After 8 weeks, tissue was transferred to fresh UMO(2) containing selection, parafilmed, and cultured in the dark for an additional 8 weeks. Good embryogenic callus was moved to TRP embryo maturation media, parafilmed and cultured in the dark at 28° C. Embryogenic callus was subcultured to fresh TRP media every 4 weeks until somatic embryos formed and were moved to SHSU embryo germination media. Once on parafilmed SHSU plates, the shoots were placed in the light at 28° C. and subcultured every four weeks until roots began to form. When healthy roots and leaves were present, the shoots were moved to SHSU media in sundae cups and eventually to soil.

[2] = system: potato stem explants, cultivar Ranger Russet; assay: Potato Agrobacterium transformation with glyphosate selection; assay type: cell-based; conditions: for #rooted / shoots: 400 explants; for % TE (transformation efficiency) / % escape: potato
Method: This Example describes the use of lipoic acid in an Agrobacterium-based potato transformation protocol. Five days prior to inoculation, Agrobacterium containing the transformation vector of interest were streaked on a fresh LBssck plate (see media descriptions in Example 1) from the frozen glycerol stock, grown at about 28° C. for 3-4 days and stored in the refrigerator. About 20-22 hours before inoculation, 50 mL of liquid LBssck media (see media descriptions in Example 1) were dispensed into a 250-mL sterile flask. Using a sterile bacteriological loop, one loopful of bacteria from the LBssck plate was inoculated and agitated in the liquid LBssck. The 250-mL flasks were shaken at 25° C. overnight at medium to high speed. On inoculation day, 45 mL of MSO (4.4 g/L MS salts, 2 mL/L, Gamborg's B5 salts, 30 g/L sucrose) were dispensed into a 250 mL sterile flask. Using a sterile 5 mL pipette, 5 mL of the suspension was removed and dispensed into the flask containing the 45 mL of MSO and then agitated. The desired O.D. used for Agrobacterium transformation in potato was O.D.660=0.1.
The stock plant material to be used was collected from the growth chamber (16-hour light, 20° C.). The meristem was excised from the stock plants, and the cut end was placed in fresh PM (see media descriptions below) media, with ten meristems per plantcon. The leaves were removed from the potato stems by either cutting with a scalpel or pinching them off with forceps. After removing all the leaves in the plantcon, the stems were excised near the base and placed in an empty, sterile plantcon containing MSO. During this process, the plantcon(s) containing stems were kept closed except when adding more stems.
On the day of the inoculation, the stems were cut into 7 mm sections using a sterile scalpel and forceps. A 1/10 Agrobacterium solution was prepared by pipetting 4 mL of the Agrobacterium culture into 36 mL of MSO. The 1/10 agro solution was poured into the respective plates and swirled gently. A small amount of MSO was dispensed into the regeneration tissue and swirled. It was incubated for 15 min.
After 15 minutes, the Agrobacterium solution was removed with a vacuum aspirator. Using a sterile scoopula, the explants were scooped and spread onto the coculture plates with a piece of sterile 8.5 cm Whatman filter paper placed in the middle, about 100 explants per plate. The plates were placed in a bag and stored in a warm room ( 16/8 hour light, 19° C.) for two days.
After the two-day co-culture period, explants were placed on the appropriate selection media corresponding to the selectable marker provided in the transformation vector.
The explants were placed on the Z1 nonselection media at 20 explants per plate. The plates were placed in a bag and stored in a warm room (16-hour light, 19° C.). The glyphosate constructs were transferred to selection medium in 3 days.
In three days, the explants were transferred to Z1 glyphosate selection media at 20 explants per plate. The plates are bagged and placed in the warm room for one week.
After one week, the explants that were on Z1 glyphosate media were transferred to Z2 glyphosate media at 20 explants per plate. The plates were bagged and placed back in the warm room for 4 weeks. They remained on-this selection media for four weeks.
After two weeks, the experiment was checked for any shoots at this point. Shoots that were originating directly from the callusing end of the explant were excised. The shoots were placed on rooting media containing either kanamycin or glyphosate depending upon the selection used in the experiment and placed in the growth chamber. These were checked for rooting in two weeks. Any that were rooting were cut into tubes. This process was repeated after 2 more weeks. Any non-rooting plants were discarded after 4 weeks.
The lipoic acid study was conducted using the glyphosate transformation protocol as outlined above. […]

[3] = 5 μM lipoic acid for 8 weeks in UMSEL media
[4] = 10 μM lipoic acid for 8 weeks in UMSEL media
[5] = 50 μM lipoic acid for 8 weeks in UMSEL media
[6] = 100 μM lipoic acid for 8 weeks in UMSEL media
[7] = 8 μM lipoic acid, listed as Lipoic acid
[8] = 9 μM lipoic acid, listed as Lipoic acid

Structure (SMILES): O=C(O)CCCCC1CCSS1 (stereo not drawn) [lipoic acid, 1,2-dithiolane-3-pentanoic acid]
- Frequency (%) of embryogenic callus formation [1, 3]: 49.4%
- Putative embryogenic calli [1, 3]: 132
- Frequency (%) of embryogenic callus formation [1, 4]: 31.4%
- Putative embryogenic calli [1, 4]: 88
- Frequency (%) of embryogenic callus formation [1, 5]: 61.2%
- Putative embryogenic calli [1, 5]: 120
- Frequency (%) of embryogenic callus formation [1, 6]: 56.6%
- Putative embryogenic calli [1, 6]: 107
- #rooted ([2]; 6 μM lipoic acid): 18
- shoots ([2]; 6 μM lipoic acid): 27
- % TE (transformation efficiency) ([2]; 6 μM lipoic acid): 4.5%
- % escape ([2]; 6 μM lipoic acid): 33.0%
- #rooted ([2]; 7 μM lipoic acid): 16
- shoots ([2]; 7 μM lipoic acid): 25
- % TE (transformation efficiency) ([2]; 7 μM lipoic acid): 4.0%
- % escape ([2]; 7 μM lipoic acid): 36.0%
- #rooted ([2]; 8 μM lipoic acid): 75
- shoots ([2]; 8 μM lipoic acid): 89
- % TE (transformation efficiency) ([2]; 8 μM lipoic acid): 19.0%
- % escape ([2]; 8 μM lipoic acid): 16.0%
- % TE (transformation efficiency) [2, 7]: 19%
- % escape [2, 7]: 16%
- #rooted ([2]; 9 μM lipoic acid): 70
- shoots ([2]; 9 μM lipoic acid): 89
- % TE (transformation efficiency) ([2]; 9 μM lipoic acid): 18.0%
- % escape ([2]; 9 μM lipoic acid): 21.0%
- % TE (transformation efficiency) [2, 8]: 18%
- % escape [2, 8]: 21%
- increase in transformation efficiency ([2]; lipoic acid at 8 μM and 9 μM vs control): sixfold increase
- effect on transformation efficiency and escapes ([2]; lipoic acid at 6 and 7 μM): little effect
